Patent US20250206719A1, “ALBICIDIN DERIVATIVES, THEIR USE AND SYNTHESIS” (TECHNISCHE UNIVERSITÄT BERLIN, priority 2022, published 2025)
Values after ≈ are worked out from the molar mass of the structure shown. Where two headings read alike, the source gives them in different places.

How the values were obtained:
[1] = test system: Micrococcus luteus DSM1790; test: MIC microdilution assay, M. luteus DSM 1790; format: cell-based; conditions: read-out: MIC M. luteus DSM 1790
Method: (§1) The tests were performed using the micro dilution method.
(§2) The determination of MIC values was performed according to the ninth edition of the Approved Standard M07-A9 (CLSI. Methods for Dilution Antimicrobial Susceptibility Tests for Bacteria That Grow Aerobically; Approved Standard-Ninth Edition. CLSI document M07-A9. Wayne, PA: Clinical and Laboratory Standards Institute; 2012.)
(§3) The test was carried out for different bacterial strains (E. coli DSM 1116, E. coli BW25113 [gram negative], B. subtilis DSM 10 [gram positive], M. luteus DSM 1790 [gram positive], S. typhimurium TA100 [gram negative]) and M. phlei DSM 750. 20 μL of cryo stock of each strain were inoculated in 20 mL of LB media (Lysogeny broth: 10 g/L peptone, 5 g/L yeast extract, 5 g/L NaCl) followed by incubation over night at 37° C., 200 rpm. The test inoculum was adjusted by the 0.5 McFarland Standard (OD625 from 0.08 to 0.1). Within 15 min of preparation, the adjusted inoculum suspension was diluted in MHBII media (BBL TM Mueller-Hinton Broth II, Becton, Dickinson and Company, New Jersey/USA) so that each well contained approximately 5×10^5 CFU/mL in a final volume of 100 μL. 95 μL of the inoculum were applied per well and 5 μL of the (diluted) antibiotic substance were added.
(§4) Previously the dry antibiotic compounds were dissolved in DMSO (100%) with a concentration of 2560 μg/mL and the resulting stock solutions were further diluted in DMSO (100%). 5 μL of each antibiotic dilution were applied to the microdilution tray to reach final concentrations of 64 μg/mL to 0.008 μg/mL. One row of each well plate was left as a growth control without antibiotic substances and another row of the microdilution tray was used as sterility control (only MHB II-media). The antimicrobial effect of the solvent (DMSO) was tested by adding 5 μL DMSO to several wells without antibiotics. Purity check and cell titer control were performed according to International Standard M07-A9 on Mueller-Hinton II Agar (Mueller Hinton II Broth, 15 g/L agar-agar). Both microdilution trays and agar plates were incubated at 37° C. for 20 h and subsequently analyzed visually.

Bacillus subtilis DSM10 = test: MIC microdilution assay, B. subtilis DSM 10; format: cell-based; conditions: read-out: MIC B. subtilis DSM10
Method: as §1, §2, §3, §4

E. coli BW25113 [2] = test: MIC determination (medium: MHBII/human serum (1:1)); format: cell-based; conditions: Escherichia coli
Method: The test was carried out for bacterial strain, E. coli BW25113 (Gram-negative).
First, 20 μl of glycerol stock of the strain was inoculated in 20 mL LB followed by incubation overnight at 37° C., 200 r.p.m.
The serum was subjected to a heat shock (56° C./30 min in a water bath) before use.
The test inoculum was adjusted by the 0.5 McFarland Standard, so that each well contained approximately 5×10^5 c.f.u. mL^−1 in a final volume of 100 μL. For the adjustment of the test inoculum, MHBII medium and the human serum were used in a mixing ratio of 1:1.
For dilutions, the dry powders were dissolved in DMSO with a concentration of 2.56 mg mL-1 and serially diluted in DMSO (100%). Initial solution and serial dilutions of Ciprofloxacin were prepared in 0.1 N HCl.
Then, 95 μL of the adjusted inoculum was applied per well and 5 μl of each antibiotic dilution was applied to the microdilution tray to reach final concentrations of 8 to 0.016 μg ml^−1.
The antimicrobial effect of the solvent (DMSO or 0.1 N HCL) was tested by adding 5 μL DMSO or 0.1 N HCL to several wells.
One row of each well plate served as a growth control without antibiotic substances, and another row of the microdilution tray served as sterility control (MHB II-media).

E. coli BW25113 [3] = test: MIC microdilution assay, E. coli BW25113; format: cell-based; conditions: Escherichia coli, read-out: MIC E. coli BW25113
Method: as §1, §2, §3, §4

S. typhimurium TA100 = test: MIC microdilution assay, S. typhimurium TA100; format: cell-based; conditions: Salmonella enterica, 20 h, read-out: MIC S. typhimurium TA100
Method: as §1, §2, §3, §4

M. phlei DSM 750 = test: MIC microdilution assay, M. phlei DSM 750; format: cell-based, Mycobacterium phlei; conditions: Mycolicibacterium phlei, read-out: MIC M. phlei DSM 750
Method: as §1, §2, §3, §4

E. coli DSM 1116 = test: MIC microdilution assay, E. coli DSM 1116; format: cell-based; conditions: Escherichia coli, read-out: MIC E. coli DSM1116
Method: as §1, §2, §3, §4

[4] = DSM1790, MHBII medium, 37° C., 20 h, test range 64 to 0.008 μg/mL
[5] = DSM10, MHBII medium, 37° C., 20 h, test range 64 to 0.008 μg/mL
[6] = E. coli BW25113, MHBII/human serum 1:1, test range 8 to 0.016 μg/ml, read-out: MIC E. coli + 50% human serum
[7] = BW25113, MHBII medium, 37° C., 20 h, test range 64 to 0.008 μg/mL
[8] = MHBII medium, 37° C., test range 64 to 0.008 μg/mL
[9] = DSM750, MHBII medium, 37° C., 20 h, test range 64 to 0.008 μg/mL
[10] = DSM1116, MHBII medium, 37° C., 20 h, test range 64 to 0.008 μg/mL

Row | SMILES | MIC [1, 4] [µg/mL] | MIC (Bacillus subtilis DSM10; [5]) [µg/mL] | MIC (E. coli BW25113 [2]; [6]) [µg/mL] | MIC (E. coli BW25113 [3]; [7]) [µg/mL] | MIC (S. typhimurium TA100; [8]) [µg/mL] | MIC (M. phlei DSM 750; [9]) [µg/mL] | MIC (E. coli DSM 1116; [10]) [µg/mL] | further results
1 | COc1c(NC(=O)c2ccc(NC(=O)c3ccc(NC(=O)C(Cc4c[nH]nn4)NC(=O)c4ccc(NC(=O)c5ccc6nc[nH]c6c5)cc4)cn3)c(OC)c2O)ccc(C(=O)O)c1O (stereo not drawn) [Compound 9] | 2 (≈ 2.3 µM) | 2 (≈ 2.3 µM) | ≥ 8 | 0.125 (≈ 0.144 µM) | 0.125 (≈ 0.144 µM) | 8 (≈ 9.2 µM) | 0.125 (≈ 0.144 µM) | 
2 | COc1c(NC(=O)c2ccc(NC(=O)c3ccc(NC(=O)[C@H](Cc4c[nH]nn4)NC(=O)c4ccc(NC(=O)c5ccc6nccnc6c5)cc4)cn3)c(OC)c2O)ccc(C(=O)O)c1O [Compound 7] |  |  | 1 |  | ≤ 0.016 |  |  | 
3 | COc1c(NC(=O)c2ccc(NC(=O)c3ccc(NC(=O)[C@H](Cc4c[nH]nn4)NC(=O)c4ccc(NC(=O)c5cnc6ccccc6c5)cc4)cn3)c(OC)c2O)ccc(C(=O)O)c1O [Compound 3] |  |  | 2 |  | ≤ 0.016 |  |  | 
4 | COc1c(NC(=O)c2ccc(NC(=O)c3ccc(NC(=O)C(Cc4c[nH]nn4)NC(=O)c4ccc(NC(=O)c5ccc6nn[nH]c6c5)cc4)cn3)c(OC)c2O)ccc(C(=O)O)c1O (stereo not drawn) [Compound 16] | 1 (≈ 1.15 µM) | 0.5 to 1 (≈ 0.574 to 1.15 µM) | 8 | 0.031 (≈ 0.0356 µM) | 0.125 (≈ 0.144 µM) | 4 to 8 (≈ 4.59 to 9.19 µM) | 0.063 (≈ 0.0723 µM) | 
5 | COc1c(NC(=O)c2ccc(NC(=O)c3ccc(NC(=O)[C@H](Cc4c[nH]nn4)NC(=O)c4ccc(NC(=O)c5cc6cc(O)ccc6[nH]5)cc4)cn3)c(OC)c2O)ccc(C(=O)O)c1O (stereo in doubt) [Compound 14] |  |  | ≥ 8 | 0.125 (≈ 0.141 µM) | 0.125 (≈ 0.141 µM) |  |  | 
6 | COc1c(NC(=O)c2ccc(NC(=O)c3ccc(NC(=O)[C@H](Cc4c[nH]nn4)NC(=O)c4ccc(NC(=O)c5cc(=O)c6cc(F)ccc6o5)cc4)cn3)c(OC)c2O)ccc(C(=O)O)c1O (stereo in doubt) [Compound 12] |  |  | 8 |  | ≤ 0.016 |  |  | 
7 | COc1c(NC(=O)c2ccc(NC(=O)c3ccc(NC(=O)[C@H](Cc4c[nH]nn4)NC(=O)c4ccc(NC(=O)c5ccc6ncccc6c5)cc4)cn3)c(OC)c2O)ccc(C(=O)O)c1O (stereo in doubt) [Compound 2] |  |  | 4 |  | ≤ 0.016 |  |  | 
8 | COc1c(NC(=O)c2ccc(NC(=O)c3ccc(NC(=O)[C@H](Cc4c[nH]nn4)NC(=O)c4ccc(NC(=O)c5ccc6ccccc6n5)cc4)cn3)c(OC)c2O)ccc(C(=O)O)c1O (stereo in doubt) [Compound 13] |  |  | 2 |  | ≤ 0.016 |  |  | 
9 | COc1c(NC(=O)c2ccc(NC(=O)c3ccc(NC(=O)[C@H](Cc4c[nH]nn4)NC(=O)c4ccc(NC(=O)c5cc6ccccc6cn5)cc4)cn3)c(OC)c2O)ccc(C(=O)O)c1O (stereo in doubt) [Compound 10] |  |  |  |  |  |  |  | MIC ([1]; DSM1790, 20 h): 0.063 µg/mL (≈ 0.0715 µM); MIC (Bacillus subtilis DSM10; DSM10, 20 h): 0.063 µg/mL (≈ 0.0715 µM); MIC (E. coli BW25113 [2]; BW25113, read-out: MIC E. coli + 50% human serum): 1 µg/mL; MIC (E. coli BW25113 [3]; BW25113, 20 h): ≤ 0.016 µg/mL; MIC (S. typhimurium TA100): ≤ 0.016 µg/mL; MIC (M. phlei DSM 750; DSM750, 20 h): 1 µg/mL (≈ 1.14 µM); MIC (E. coli DSM 1116; DSM1116, 20 h): ≤ 0.016 µg/mL
10 | CCn1cc(C(=O)Nc2ccc(C(=O)N[C@@H](Cc3c[nH]nn3)C(=O)Nc3ccc(C(=O)Nc4ccc(C(=O)Nc5ccc(C(=O)O)c(O)c5OC)c(O)c4OC)nc3)cc2)c(=O)c2cc3c(cc21)OCO3 [Compound 6] |  |  | 0.5 |  | ≤ 0.016 |  |  | 
11 | COc1c(NC(=O)c2ccc(NC(=O)c3ccc(NC(=O)C(Cc4c[nH]nn4)NC(=O)c4ccc(NC(=O)c5ccc6ncsc6c5)cc4)cn3)c(OC)c2O)ccc(C(=O)O)c1O (stereo not drawn) [Compound 8] |  |  | 0.5 | ≤ 0.016 | ≤ 0.016 | 2 (≈ 2.26 µM) | ≤ 0.016 | 
12 | COc1c(NC(=O)c2ccc(NC(=O)c3ccc(NC(=O)[C@H](Cc4c[nH]nn4)NC(=O)c4ccc(NC(=O)c5c[nH]c6ccccc6c5=O)cc4)cn3)c(OC)c2O)ccc(C(=O)O)c1O [Compound 4] |  |  | 2 |  | ≤ 0.016 |  |  | 
13 | COc1c(NC(=O)c2ccc(NC(=O)c3ccc(NC(=O)C(Cc4c[nH]nn4)NC(=O)c4ccc(NCc5ccc6ncccc6c5)cc4)cn3)c(OC)c2O)ccc(C(=O)O)c1O (stereo not drawn) [Compound 15] | 0.125 (≈ 0.144 µM) | 0.25 to 0.5 (≈ 0.288 to 0.577 µM) | 4 to 8 | 0.031 (≈ 0.0358 µM) | 0.031 (≈ 0.0358 µM) | 2 (≈ 2.31 µM) | 0.063 (≈ 0.0727 µM) | 
14 | COc1c(NC(=O)c2ccc(NC(=O)c3ccc(NC(=O)[C@H](Cc4c[nH]nn4)NC(=O)c4ccc(NC(=O)c5ccc6nc(C)ccc6c5)cc4)cn3)c(OC)c2O)ccc(C(=O)O)c1O [Compound 1] | 0.063 (≈ 0.0704 µM) | 0.063 (≈ 0.0704 µM) | 0.5 | 0.016 (≈ 0.0179 µM) | ≤ 0.016 | 0.5 (≈ 0.559 µM) | 0.016 (≈ 0.0179 µM) | 
15 | CCn1cc(C(=O)Nc2ccc(C(=O)N[C@@H](Cc3c[nH]nn3)C(=O)Nc3ccc(C(=O)Nc4ccc(C(=O)Nc5ccc(C(=O)O)c(O)c5OC)c(O)c4OC)nc3)cc2)c(=O)c2ccc(C)nc21 [Compound 11] |  |  | 8 |  | ≤ 0.016 |  |  | 
16 | COc1c(NC(=O)c2ccc(NC(=O)c3ccc(NC(=O)C(Cc4c[nH]nn4)NC(=O)c4ccc(NC(=O)/C(C)=C/c5ccc(O)cc5)cc4)cn3)c(OC)c2O)ccc(C(=O)O)c1O (stereo not drawn) [3^RD GEN Alb i, reference compound] | 0.031 (≈ 0.035 µM) | 0.031 (≈ 0.035 µM) | 0.5 | 0.016 (≈ 0.0181 µM) | 0.016 (≈ 0.0181 µM) | 0.25 (≈ 0.282 µM) | 0.016 (≈ 0.0181 µM) | 
